Results: US11299497B2, “Substituted tetrahydropyran dihydrothienopyrimidines and their use as phosphodiesterase inhibitors” (UNION therapeutics A/S, priority 2017, dated 2022)

What was measured:
[1] = system: TNF-α release, human peripheral blood mononuclear cells (PBMC); test: TNF-α Release in LPS-stimulated PBMC; assay type: cell-based; details: 30 minutes pre-incubation, lipopolysaccharide stimulation 18 hours, TR-FRET, read-out: TNF-α IC50 range
Method: Human peripheral blood mononuclear cells (PBMC) were isolated from buffy coats. The blood is mixed with saline at a ratio of 1:1, and the PBMC were isolated using Lymphoprep Tube™ (Nycomed, Norway). The PBMC were suspended in RPMI1640 with 0.5% human serum albumin, pen/strep and 2 mM L-glutamine at a concentration of 5×105 c/ml. The cells were pre-incubated for 30 minutes with the test compounds in 96 well tissue culture plates and stimulated for 18 hours with lipopolysaccharide 1 mg/ml (Sigma). TNF-α concentration in the supernatants was measured using homogeneous time-resolved fluorescence resonance (TR-FRET). The assay is quantified by measuring fluorescence at 665 nm (proportional to TNF-α concentration) and 620 nm (control).
Results were expressed as IC50 values calculated from inhibition curves using as positive controls the secretion in LPS stimulated wells and as negative controls the secretion in unstimulated cells.

[2] = target: human PDE41 Dcatalytic domain (UniProt no. Q08499 [S380-L740]) (Homo sapiens (Human), UniProt Q08499); test: PDE4 Assay (TR-FRET, FAM-cAMP cleavage); assay type: biochemical; details: human PDE4D catalytic domain, cAMP / FAM-cAMP substrate, read-out: PDE4 IC50 range
Sequence of human PDE41 Dcatalytic domain (Q08499 380-740): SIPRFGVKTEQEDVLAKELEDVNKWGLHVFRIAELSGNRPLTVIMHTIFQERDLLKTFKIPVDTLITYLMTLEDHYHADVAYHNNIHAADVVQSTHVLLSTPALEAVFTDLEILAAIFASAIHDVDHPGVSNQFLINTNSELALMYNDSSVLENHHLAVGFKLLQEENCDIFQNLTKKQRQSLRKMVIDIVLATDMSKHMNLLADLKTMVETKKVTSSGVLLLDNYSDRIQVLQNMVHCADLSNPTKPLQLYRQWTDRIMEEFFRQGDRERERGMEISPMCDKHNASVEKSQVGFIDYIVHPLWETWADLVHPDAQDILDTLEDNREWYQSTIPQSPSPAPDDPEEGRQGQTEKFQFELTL
Method: The human PDE41 Dcatalytic domain (UniProt no. Q08499 [S380-L740]) was incubated with a mixture of non-labelled cAMP (cyclic adenosine monophosphate) and fluorescein amidite (FAM) conjugated cAMP and titrated test or reference compound. Following brief incubation the enzymatic reaction was stopped by addition of binding buffer containing nanoparticles with immobilized trivalent metal ions capable of binding 1) AMP phospho groups and 2) terbium (Tb) donor fluorophores. Subsequent excitation of the Tb donor triggers time-resolved FRET to adjacent FAM acceptor molecules resulting in light emission. In the presence of a PDE4 inhibitor, AMP generation was reduced resulting in a lower fluorescence signal. The cAMP phosphodiester is not bound by the detection system.
The results were calculated as the molar concentrations resulting in 50/inhibition of the substrate cleavage compared to controls samples, and are expressed as IC50 (nM).

SMILES	IC50 [1] [nM]	IC50 [2] [nM]
CN(CCC1CCOCC1)c1nc2c(c(NC3CCOCC3)n1)[S+]([O-])CC2 (stereo in doubt) [Example 1, (5R)—N2-methyl-5-oxido-N4-tetrahydropyran-4-yl-N2-(2-tetrahydropyran-4-ylethyl)-6,7-dihydrothieno[3,2-d]pyrimidin-5-ium-2,4-diamine]	10 to 50	10 to 50
CCN(CCC1CCOCC1)c1nc2c(c(NC3CCOCC3)n1)[S@@+]([O-])CC2 [Example 2, (5R)—N2-ethyl-5-oxido-N4-tetrahydropyran-4-yl-N2-(2-tetrahydropyran-4-ylethyl)-6,7-dihydrothieno[3,2-d]pyrimidin-5-ium-2,4-diamine]	< 10	< 10
CN(CCC1CCOCC1)c1nc2c(c(NC(C)(C)C)n1)[S+]([O-])CC2 (stereo not drawn) [Example 3, N4-tert-butyl-N2-methyl-5-oxido-N2-(2-tetrahydropyran-4-ylethyl)-6,7-dihydrothieno[3,2-d]pyrimidin-5-ium-2,4-diamine]	10 to 50	10 to 50
CCCNc1nc(N(C)CCC2CCOCC2)nc2c1[S+]([O-])CC2 (stereo not drawn) [Example 4, N2-methyl-5-oxido-N4-propyl-N2-(2-tetrahydropyran-4-ylethyl)-6,7-dihydrothieno[3,2-d]pyrimidin-5-ium-2,4-diamine]	10 to 50	50 to 100
CC(C)Nc1nc(N(C)CCC2CCOCC2)nc2c1[S+]([O-])CC2 (stereo not drawn) [Example 5, N4-isopropyl-N2-methyl-5-oxido-N2-(2-tetrahydropyran-4-ylethyl)-6,7-dihydrothieno[3,2-d]pyrimidin-5-ium-2,4-diamine]	10 to 50	10 to 50
CCCCNc1nc(N(C)CCC2CCOCC2)nc2c1[S+]([O-])CC2 (stereo not drawn) [Example 6, N4-butyl-N2-methyl-5-oxido-N2-(2-tetrahydropyran-4-ylethyl)-6,7-dihydrothieno[3,2-d]pyrimidin-5-ium-2,4-diamine]	10 to 50	10 to 50
CC(C)CNc1nc(N(C)CCC2CCOCC2)nc2c1[S+]([O-])CC2 (stereo not drawn) [Example 7, N4-isobutyl-N2-methyl-5-oxido-N2-(2-tetrahydropyran-4-ylethyl)-6,7-dihydrothieno[3,2-d]pyrimidin-5-ium-2,4-diamine]	10 to 50	10 to 50
CN(CCC1CCOCC1)c1nc2c(c(NC3(C)CCC3)n1)[S+]([O-])CC2 (stereo not drawn) [Example 8, N2-methyl-N4-(1-methylcyclobutyl)-5-oxido-N2-(2-tetrahydropyran-4-ylethyl)-6,7-dihydrothieno[3,2-d]pyrimidin-5-ium-2,4-diamine]	< 10	10 to 50
CN(CCC1CCOCC1)c1nc2c(c(NC3CCC3)n1)[S+]([O-])CC2 (stereo not drawn) [Example 9, N4-cyclobutyl-N2-methyl-5-oxido-N2-(2-tetrahydropyran-4-ylethyl)-6,7-dihydrothieno[3,2-d]pyrimidin-5-ium-2,4-diamine]	10 to 50	10 to 50
CN(CCC1CCOCC1)c1nc2c(c(NC3(C#N)CCC3)n1)[S+]([O-])CC2 (stereo not drawn) [Example 10, 1-[[2-[methyl(2-tetrahydropyran-4-ylethyl)amino]-5-oxido-6,7-dihydrothieno[3,2-d]pyrimidin-5-ium-4-yl]amino]cyclobutanecarbonitrile]	10 to 50	10 to 50
CN(CCC1CCOCC1)c1nc2c(c(NC3(C#N)CC3)n1)[S+]([O-])CC2 (stereo not drawn) [Example 11, 1-[[2-[methyl(2-tetrahydropyran-4-ylethyl)amino]-5-oxido-6,7-dihydrothieno[3,2-d]pyrimidin-5-ium-4-yl]amino]cyclopropanecarbonitrile]	10 to 50	10 to 50
CC[C@H](C)Nc1nc(N(C)CCC2CCOCC2)nc2c1[S+]([O-])CC2 (stereo partly drawn) [Example 12, N2-methyl-N4-[(1S)-1-methylpropyl]-5-oxido-N2-(2-tetrahydropyran-4-ylethyl)-6,7-dihydrothieno[3,2-d]pyrimidin-5-ium-2,4-diamine]	10 to 50	10 to 50
CC[C@@H](C)Nc1nc(N(C)CCC2CCOCC2)nc2c1[S+]([O-])CC2 (stereo partly drawn) [Example 13, N2-methyl-N4-[(1R)-1-methylpropyl]-5-oxido-N2-(2-tetrahydropyran-4-ylethyl)-6,7-dihydrothieno[3,2-d]pyrimidin-5-ium-2,4-diamine]	< 10	10 to 50
CN(CCC1CCOCC1)c1nc2c(c(NC3(C)CC3)n1)[S+]([O-])CC2 (stereo not drawn) [Example 14, N2-methyl-N4-(1-methylcyclopropyl)-5-oxido-N2-(2-tetrahydropyran-4-ylethyl)-6,7-dihydrothieno[3,2-d]pyrimidin-5-ium-2,4-diamine]	< 10	10 to 50
CN(CCC1CCOCC1)c1nc2c(c(NC3CC4(COC4)C3)n1)[S+]([O-])CC2 (stereo not drawn) [Example 15, N2-methyl-N4-(6-oxaspiro[3.3]heptan-2-yl)-5-oxido-N2-(2-tetrahydropyran-4-ylethyl)-6,7-dihydrothieno[3,2-d]pyrimidin-5-ium-2,4-diamine]	< 10	10 to 50
COc1cccc(Nc2nc(N(C)CCC3CCOCC3)nc3c2[S+]([O-])CC3)c1 (stereo not drawn) [Example 16, N4-(3-methoxyphenyl)-N2-methyl-5-oxido-N2-(2-tetrahydropyran-4-ylethyl)-6,7-dihydrothieno[3,2-d]pyrimidin-5-ium-2,4-diamine]	< 10	< 10
CN(CCC1CCOCC1)c1nc2c(c(NC3CCCCC3)n1)[S+]([O-])CC2 (stereo not drawn) [Example 17, N4-cyclohexyl-N2-methyl-5-oxido-N2-(2-tetrahydropyran-4-ylethyl)-6,7-dihydrothieno[3,2-d]pyrimidin-5-ium-2,4-diamine]	< 10	< 10
CN(CCC1CCOCC1)c1nc2c(c(NC(C)(C)CO)n1)[S+]([O-])CC2 (stereo not drawn) [Example 18, 2-methyl-2-[[2-[methyl(2-tetrahydropyran-4-ylethyl)amino]-5-oxido-6,7-dihydrothieno[3,2-d]pyrimidin-5-ium-4-yl]amino]propan-1-ol]	> 100	> 100
CCNc1nc(N(C)CCC2CCOCC2)nc2c1[S+]([O-])CC2 (stereo not drawn) [Example 19, N4-ethyl-N2-methyl-5-oxido-N2-(2-tetrahydropyran-4-ylethyl)-6,7-dihydrothieno[3,2-d]pyrimidin-5-ium-2,4-diamine]	50 to 100	> 100
CN(CCC1CCOCC1)c1nc2c(c(NC3CCCC3)n1)[S+]([O-])CC2 (stereo not drawn) [Example 20, N4-cyclopentyl-N2-methyl-5-oxido-N2-(2-tetrahydropyran-4-ylethyl)-6,7-dihydrothieno[3,2-d]pyrimidin-5-ium-2,4-diamine]	< 10	< 10
CN(CCC1CCOCC1)c1nc2c(c(NC3COC3)n1)[S+]([O-])CC2 (stereo not drawn) [Example 21, N2-methyl-N4-(oxetan-3-yl)-5-oxido-N2-(2-tetrahydropyran-4-ylethyl)-6,7-dihydrothieno[3,2-d]pyrimidin-5-ium-2,4-diamine]	50 to 100	> 100
CN(CCC1CCOCC1)c1nc2c(c(NC3(CO)CCCC3)n1)[S+]([O-])CC2 (stereo not drawn) [Example 22, [1-[[2-[methyl(2-tetrahydropyran-4-ylethyl)amino]-5-oxido-6,7-dihydrothieno[3,2-d]pyrimidin-5-ium-4-yl]amino]cyclopentyl]methanol]	> 100	> 100
CN(CCC1CCOCC1)c1nc2c(c(NC3(CO)CCC3)n1)[S+]([O-])CC2 (stereo not drawn) [Example 23, [1-[[2-[methyl(2-tetrahydropyran-4-ylethyl)amino]-5-oxido-6,7-dihydrothieno[3,2-d]pyrimidin-5-ium-4-yl]amino]cyclobutyl]methanol]	> 100	> 100
CN(CCC1CCOCC1)c1nc2c(c(NC3(CO)CC3)n1)[S+]([O-])CC2 (stereo not drawn) [Example 24, [1-[[2-[methyl(2-tetrahydropyran-4-ylethyl)amino]-5-oxido-6,7-dihydrothieno[3,2-d]pyrimidin-5-ium-4-yl]amino]cyclopropyl]methanol]	> 100	> 100
